One compound from US20120190745A1, “ORAL COMPOSITION FOR REDUCING WRINKLE FORMATION” (SHISEIDO COMPANY. LTD., priority 2009, published 2012) can be followed below.

SMILES strings stand for the structures.

The test system of test [1] is mice irradiated with ultraviolet rays. Briefly: Wrinkle formation caused by UV irradiation. In kind it is in vivo, Skh-1 hairless mice. To be noted: 10 mM in drinking water for four weeks; UV-B three times a week, total 1.4 J/cm^2; score 0-8 per Table 1; control 4.9; p<1%. On the procedure: Four weeks after the initiation of the D-glutamic acid administration, the dorsal areas of the mice were photographed, and a partly modified method by Bissett et al. (Bissett, D. L. et al., Photochemistry and Photobiology, 46:367(1987)) was employed to evaluate the degree of wrinkle formation in accordance with the judgment criteria indicated in Table 1 shown below.
(§1) Six week-old Skh-1 hairless mice (male) were employed.
(§2) Drinking water containing 10 mM D-glutamic acid was given via a water supplying bottle for four weeks. The negative control employed was drinking water containing no D-glutamic acid.
(§3) UV irradiation was conducted employing a partly modified method by Schwarz et al. (Haratake, A. et al., J. Invest. Dermatol. 108:769 (1997)) in accordance with the repetitive UV-B irradiation method (Naganuma, M. et al., J. Dermatol.Sci.25:29 (2001), Schwartz, E. J., Invest. Dermatol. 91:158 (1988)). Thus, the dorsal area was irradiated with UV-B(light source: Toshiba FL-20 SE fluorescent lamp manufactured by Toshiba Electric) three times a week for four weeks. The total irradiation dose was 1.4 J/cm^2. The UV dose measured with UVRADIOMETER (UVR-305/365D(II), Topcon Corporation) was employed as a readout.
The wrinkle formation was evaluated by a method similar to that in Example 1.

Test [2] has the same test system. Kind of test: Transepidermal water loss (skin barrier function) in mice irradiated with ultraviolet rays. To be noted: 10 mM in drinking water for four weeks; UV-B three times a week, total 1.4 J/cm^2; control 16. In kind it is in vivo, Skh-1 hairless mice. On the procedure: as §1, §2, §3
Four weeks after the initiation of the D-glutamic acid administration, the quantity of the transepidermal water loss was measured according to a standard method.

In test [3] the test system is tape-stripped mice. Kind of test: Wrinkle formation caused by tape stripping method. Type of test: in vivo, HR-1 hairless mice. To be noted: 10 mM in drinking water for four weeks, score 0-8 per Table 1, control 3.5, p<1%. As for the experimental part: (§4) Five-week old male HR-1 hairless mice (Hoshino Laboratory Animals, Inc.) were subjected to the experiment.
as §2
(§5) For the purpose of forming a wrinkle, a tape stripping method was conducted three times a week starting on five days after the initiation of the D-glutamic acid administration according to the method by Matsunaga et al. (Matsunaga, Y. et al., Br. J. Dermatol., 156:884 (2007)). Briefly, a 24-mm width cellophane tape (Cellotape (trade mark), Nichiban Co., Ltd.) cut in a length suited to the dorsal length of a hairless mouse (HR-1 strain; Hoshino Laboratory Animals, Inc., Tokyo) was adhered evenly over the entire dorsal area and then peeled off. […] For example when a non-treated hairless mouse was subjected to the adhesion/peeling off cycle procedures, the first treatment involved four cycles, and the second and third treatments involved each five to six cycles and the treatment in the second week and later involved six to eight cycles, whereby increasing the quantity of the horny layer water loss to about to 8 mg/cm^2/h. […]

The subject of test [4] is tape-stripped mice. Kind of test: Skin thickening caused by tape stripping method. In kind it is in vivo, HR-1 hairless mice. To be noted: 10 mM in drinking water for four weeks; tape stripping three times a week; negative control 1.2; p<0.1%. On the procedure:
as §4, §2
as §5, with “(2007)).” for “(2007)). Briefly, a 24-mm width cellophane tape (Cellotape (trade mark), Nichiban Co., Ltd.) cut in a length suited to the dorsal length of a hairless mouse (HR-1 strain; Hoshino Laboratory Animals, Inc., Tokyo) was adhered evenly over the entire dorsal area and then peeled off.”
Four weeks after the initiation of the D-glutamic acid administration, the skin thickness was measured using a thickness gauge. The measured value of the skin thickness represented as “skin thickness×2”, since the measurement was conducted by calipering the skin with the thickness gauge.

`N[C@H](CCC(=O)O)C(=O)O` [D-glutamic acid]: the wrinkle score was found to be 3.3 in test [1] and 1.5 with tape-stripped mice [3]. The “quantity of the transepidermal water loss” value in test [2] stood at 13. The “mean value of the skin thickness (skin thickness×2)” value in the test with tape-stripped mice [4] is reported as 1.05.
